Target: T1, LPA1 (Homo sapiens, UniProt Q92633)
T1 construct: ProLink (PK) beta-galactosidase enzyme-fragment tag; host or cells: CHO-K1
Test: LPA1 calcium flux assay (LPA1 functional antagonist assay)
Assay type: cell-based
Settings: PathHunter CHO-K1 EDG2 β-Arrestin cell line; calcium indicator dye; stimulated with EC80 concentration of LPA; FLIPR Tetra
Experimental: Following overnight culture, cells were loaded with calcium indicator dye from the HitHunter Calcium No WashPLUS Assay kit (Eurofins DiscoverX Corporation, Cat #93-0091) for 45 minutes at 37° C. […] After compound addition, assay plates were equilibrated to room temperature for 30 minutes. […] IC50 values were determined by Chemical and Biological Information System from ChemInnovation Software, Inc. The compounds of this invention were tested for their activity to inhibit LPA1 as determined in an LPA1 functional antagonist assay as described herein.

T1 sequence (Q92633 whole entry, the tested form may be a part): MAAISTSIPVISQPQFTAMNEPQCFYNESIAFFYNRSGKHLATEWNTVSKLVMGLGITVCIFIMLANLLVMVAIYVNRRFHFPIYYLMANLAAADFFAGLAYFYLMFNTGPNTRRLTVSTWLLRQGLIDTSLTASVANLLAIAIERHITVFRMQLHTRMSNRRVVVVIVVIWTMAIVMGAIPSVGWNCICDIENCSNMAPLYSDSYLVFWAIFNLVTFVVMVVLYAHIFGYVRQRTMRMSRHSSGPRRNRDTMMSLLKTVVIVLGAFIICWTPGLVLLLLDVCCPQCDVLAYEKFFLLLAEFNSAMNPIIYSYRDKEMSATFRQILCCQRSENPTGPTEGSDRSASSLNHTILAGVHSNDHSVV

Row | SMILES | IC50
1 | Cc1nc(-c2nnn(C)c2Cn2ccc(CC3CC3)c(C)c2=O)ccc1N1CC(CC(=O)O)CC(F)(F)C1 (stereo in doubt) [Example 3, (S)-2-(1-(6-(5-((4-(cyclopropylmethyl)-3-methyl-2-oxopyridin-1(2H)-yl)methyl)-1-methyl-1H-1,2,3-triazol-4-yl)-2-methylpyridin-3-yl)-5,5-difluoropiperidin-3-yl)acetic acid] | 500 to 5000 nM
2 | CCCc1cn(Cc2c(-c3ccc(N4C[C@@H](CC(=O)O)CC(F)(F)C4)c(C)n3)nnn2C)ccc1=O (stereo in doubt) [Example 43, (S)-2-(5,5-difluoro-1-(2-methyl-6-(1-methyl-5-((4-oxo-3-propylpyridin-1(4H)-yl)methyl)-1H-1,2,3-triazol-4-yl)pyridin-3-yl)piperidin-3-yl)acetic acid] | > 5000 nM
3 | CCCc1ccc(=O)n(Cc2c(-c3cnc(N4C[C@H](CC(=O)O)CC(F)(F)C4)cn3)nnn2C)c1 (stereo in doubt) [Example 56, (R)-2-(5,5-difluoro-1-(5-(1-methyl-5-((2-oxo-5-propylpyridin-1(2H)-yl)methyl)-1H-1,2,3-triazol-4-yl)pyrazin-2-yl)piperidin-3-yl)acetic acid] | > 5000 nM
4 | CCCc1cc(C)c(=O)n(Cc2c(-c3ccc(N4C[C@@H](CC(=O)O)CC(F)(F)C4)c(C)n3)nnn2C)c1 [Example 1, (S)-2-(5,5-difluoro-1-(2-methyl-6-(1-methyl-5-((3-methyl-2-oxo-5-propylpyridin-1(2H)-yl)methyl)-1H-1,2,3-triazol-4-yl)pyridin-3-yl)piperidin-3-yl)acetic acid] | 500 to 5000 nM
5 | Cc1nc(-c2nnn(C)c2Cn2ccc(CC3CC3)c(C)c2=O)ccc1N1C[C@@H](CC(=O)O)CC(F)(F)C1 [Example 2, (S)-2-(1-(6-(5-((4-(cyclopropylmethyl)-3-methyl-2-oxopyridin-1(2H)-yl)methyl)-1-methyl-1H-1,2,3-triazol-4-yl)-2-methylpyridin-3-yl)-5,5-difluoropiperidin-3-yl)acetic acid] | 500 to 5000 nM
6 | CCCc1ccc(=O)n(Cc2c(-c3ccc(N4C[C@@H](CC(=O)O)CC(F)(F)C4)c(C)n3)nnn2C)c1 [Example 4, (S)-2-(5,5-difluoro-1-(2-methyl-6-(1-methyl-5-((2-oxo-5-propylpyridin-1(2H)-yl)methyl)-1H-1,2,3-triazol-4-yl)pyridin-3-yl)piperidin-3-yl)acetic acid] | 100 to 500 nM
7 | CCCc1cccn(Cc2c(-c3ccc(N4C[C@@H](CC(=O)O)CC(F)(F)C4)c(C)n3)nnn2C)c1=O [Example 5, (S)-2-(5,5-difluoro-1-(2-methyl-6-(1-methyl-5-((2-oxo-3-propylpyridin-1(2H)-yl)methyl)-1H-1,2,3-triazol-4-yl)pyridin-3-yl)piperidin-3-yl)acetic acid] | > 5000 nM
8 | CCCc1ccc(=O)n(Cc2c(-c3ccc(N4C[C@@H](CC(=O)O)CC(F)(F)C4)c(CC)n3)nnn2C)c1 [Example 6, (S)-2-(1-(2-ethyl-6-(1-methyl-5-((2-oxo-5-propylpyridin-1(2H)-yl)methyl)-1 H-1,2,3-triazol-4-yl)pyridin-3-yl)-5,5-difluoropiperidin-3-yl)acetic acid] | < 100 nM
9 | CCCc1ccc(=O)n(Cc2c(-c3ccc(N4C[C@H](CC(=O)O)CC(F)(F)C4)c(CC)n3)nnn2C)c1 [Example 7, (R)-2-(1-(2-ethyl-6-(1-methyl-5-((2-oxo-5-propylpyridin-1(2H)-yl)methyl)-1H-1,2,3-triazol-4-yl)pyridin-3-yl)-5,5-difluoropiperidin-3-yl)acetic acid] | 500 to 5000 nM
10 | CCCc1ccn(Cc2c(-c3ccc(N4C[C@@H](CC(=O)O)CC(F)(F)C4)c(CC)n3)nnn2C)c(=O)c1 [Example 8, (S)-2-(1-(2-ethyl-6-(1-methyl-5-((2-oxo-4-propylpyridin-1(2H)-yl)methyl)-1 H-1,2,3-triazol-4-yl)pyridin-3-yl)-5,5-difluoropiperidin-3-yl)acetic acid] | > 5000 nM
11 | CCc1nc(-c2nnn(C)c2Cn2ccc(CC3CC3)cc2=O)ccc1N1C[C@@H](CC(=O)O)CC(F)(F)C1 [Example 9, (S)-2-(1-(6-(5-((4-(cyclopropyImethyl)-2-oxopyridin-1(2H)-yl)methyl)-1-methyl-1H-1,2,3-triazol-4-yl)-2-ethylpyridin-3-yl)-5,5-difluoropiperidin-3-yl)acetic acid] | > 5000 nM
12 | CCc1nc(-c2nnn(C)c2Cn2ccc(CC3CC3)c(C)c2=O)ccc1N1C[C@@H](CC(=O)O)CC(F)(F)C1 [Example 10, (S)-2-(1-(6-(5-((4-(cyclopropylmethyl)-3-methyl-2-oxopyridin-1(2H)-yl)methyl)-1-methyl-1H-1,2,3-triazol-4-yl)-2-ethylpyridin-3-yl)-5,5-difluoropiperidin-3-yl)acetic acid] | 100 to 500 nM
13 | CCc1nc(-c2nnn(C)c2Cn2ccc(CC3CC3)c(C)c2=O)ccc1N1C[C@H](CC(=O)O)CC(F)(F)C1 [Example 11, (R)-2-(1-(6-(5-((4-(cyclopropylmethyl)-3-methyl-2-oxopyridin-1(2H)-yl)methyl)-1-methyl-1H-1,2,3-triazol-4-yl)-2-ethylpyridin-3-yl)-5,5-difluoropiperidin-3-yl)acetic acid] | > 5000 nM

The next lines start with the values.

Row | IC50 | SMILES
14 | 500 to 5000 nM | CCCc1ccc(=O)n(Cc2c(-c3ncc(CN4CC(C(=O)O)CC(F)(F)C4)c(CC)n3)cnn2C)c1 (single isomer, unassigned) [Example 161, (R) or (S)-1-((4-ethyl-2-(1-methyl-5-((2-oxo-5-propylpyridin-1(2H)-yl)methyl)-1H-pyrazol-4-yl)pyrimidin-5-yl)methyl)-5,5-difluoropiperidine-3-carboxylic acid]
15 | < 100 nM | CCc1nc(-c2nnn(C)c2CNc2nccc(C3CCC3)n2)ccc1CN1CC(C(=O)O)CC(F)(F)C1 (single isomer, unassigned) [Example 162, (S) or (R)-1-((6-(5-(((4-cyclobutylpyrimidin-2-yl)amino)methyl)-1-methyl-1H-1,2,3-triazol-4-yl)-2-ethylpyridin-3-yl)methyl)-5,5-difluoropiperidine-3-carboxylic acid]
16 | 100 to 500 nM | CCc1nc(-c2nnn(C)c2CNc2nccc(C3CCC3)n2)ccc1CN1CC(C(=O)O)CC(F)(F)C1 (single isomer, unassigned) [Example 163, (R) or (S)-1-((6-(5-(((4-cyclobutylpyrimidin-2-yl)amino)methyl)-1-methyl-1H-1,2,3-triazol-4-yl)-2-ethylpyridin-3-yl)methyl)-5,5-difluoropiperidine-3-carboxylic acid]
17 | > 5000 nM | CCCN(C)C(=O)OCc1c(-c2ccc(CN3CC(C(=O)O)CC(F)(F)C3)c(CC)n2)nnn1C (single isomer, unassigned) [Example 164, 1-((2-ethyl-6-(1-methyl-5-(((methyl(propyl)carbamoyl)oxy)methyl)-1H-1,2,3-triazol-4-yl)pyridin-3-yl)methyl)-5,5-difluoropiperidine-3-carboxylic acid]
18 | 100 to 500 nM | CCCN(C)C(=O)OCc1c(-c2ccc(CN3CC(C(=O)O)CC(F)(F)C3)c(CC)n2)nnn1C (single isomer, unassigned) [Example 165, 1-((2-ethyl-6-(1-methyl-5-(((methyl(propyl)carbamoyl)oxy)methyl)-1H-1,2,3-triazol-4-yl)pyridin-3-yl)methyl)-5,5-difluoropiperidine-3-carboxylic acid]
19 | < 100 nM | CCc1nc(-c2nnn(C)c2Cn2cc(CC(C)C)n(C)c2=O)ccc1N1C[C@H](CC(=O)O)CC(F)(F)C1 (stereo in doubt) [Example 66, 2-[(3R)-1-[2-ethyl-6-(1-methyl-5-{[3-methyl-4-(2-methylpropyl)-2-oxo-2,3-dihydro-1H-imidazol-1-yl]methyl}-1H-1,2,3-triazol-4-yl)pyridin-3-yl]-5,5-difluoropiperidin-3-yl]acetic acid]
20 | 500 to 5000 nM | CCc1nc(-c2nnn(C)c2CN2C[C@H](CC3CC3)OC2=O)ccc1N1C[C@H](CC(=O)O)CC(F)(F)C1 (stereo in doubt) [Example 69, 2-((R)-1-(6-(5-(((S)-5-(cyclopropylmethyl)-2-oxooxazolidin-3-yl)methyl)-1-methyl-1H-1,2,3-triazol-4-yl)-2-ethylpyridin-3-yl)-5,5-difluoropiperidin-3-yl)acetic acid]
21 | > 5000 nM | Cc1nc(-c2nnn(C)c2CN2CCN(CC3CC3)C2=O)ccc1N1CC(CC(=O)O)CC(F)(F)C1 (stereo in doubt) [Example 70, (R)-2-(1-(6-(5-((3-(cyclopropylmethyl)-2-oxoimidazolidin-1-yl)methyl)-1-methyl-1H-1,2,3-triazol-4-yl)-2-methylpyridin-3-yl)-5,5-difluoropiperidin-3-yl)acetic acid]
22 | 500 to 5000 nM | CCc1nc(-c2nnn(C)c2CNc2nncc(C3CC3)n2)ccc1N1C[C@H](CC(=O)O)CC(F)(F)C1 (stereo in doubt) [Example 112, (R)-2-(1-(6-(5-(((5-cyclopropyl-1,2,4-triazin-3-yl)amino)methyl)-1-methyl-1H-1,2,3-triazol-4-yl)-2-ethylpyridin-3-yl)-5,5-difluoropiperidin-3-yl)acetic acid]
23 | > 5000 nM | CCc1nc(-c2nnn(C)c2COc2noc(C3CC3)n2)ccc1N1CC(CC(=O)O)CC(F)(F)C1 (stereo in doubt) [Example 114, (R)-2-(1-(6-(5-(((5-cyclopropyl-1,2,4-oxadiazol-3-yl)oxy)methyl)-1-methyl-1H-1,2,3-triazol-4-yl)-2-ethylpyridin-3-yl)-5,5-difluoropiperidin-3-yl)acetic acid]
24 | > 5000 nM | CCc1nc(-c2nnn(C)c2CNc2noc(C3CC3)n2)ccc1N1CC(CC(=O)O)CC(F)(F)C1 (stereo in doubt) [Example 115, (R)-2-(1-(6-(5-(((5-cyclopropyl-1,2,4-oxadiazol-3-yl)amino)methyl)-1-methyl-1H-1,2,3-triazol-4-yl)-2-ethylpyridin-3-yl)-5,5-difluoropiperidin-3-yl)acetic acid]

From patent US12780800B1, “Triazole-pyridinyl substituted azacyclohexyl acetic acid compounds as LPA receptor antagonists” (Viva Star Biosciences Limited, priority 2021, dated 2022)
